Measurements as given in ChEMBL document CHEMBL4219256, “Design, Synthesis, and Biological Evaluation of 4-Quinoline Carboxylic Acids as Inhibitors of Dihydroorotate Dehydrogenase” (J Med Chem, 2018).

How the values were obtained:
MIA PaCa-2 = assay: Antiproliferative activity against human MIAPaCa2 cells after 72 hrs by MTT assay; format: functional, cell-based
HCT-116 [1] = assay: Antiproliferative activity against human HCT116 cells over-expressing DHODH after 72 hrs by MTT assay; format: functional, cell-based
HL-60 = assay: Antiproliferative activity against human HL60 cells after 72 hrs by MTT assay
[2] = biological target: Dihydroorotate dehydrogenase (quinone), mitochondrial (Homo sapiens, UniProt Q02127)
Chain of Dihydroorotate dehydrogenase (quinone), mitochondrial (Q02127 whole entry, the tested form may be a part): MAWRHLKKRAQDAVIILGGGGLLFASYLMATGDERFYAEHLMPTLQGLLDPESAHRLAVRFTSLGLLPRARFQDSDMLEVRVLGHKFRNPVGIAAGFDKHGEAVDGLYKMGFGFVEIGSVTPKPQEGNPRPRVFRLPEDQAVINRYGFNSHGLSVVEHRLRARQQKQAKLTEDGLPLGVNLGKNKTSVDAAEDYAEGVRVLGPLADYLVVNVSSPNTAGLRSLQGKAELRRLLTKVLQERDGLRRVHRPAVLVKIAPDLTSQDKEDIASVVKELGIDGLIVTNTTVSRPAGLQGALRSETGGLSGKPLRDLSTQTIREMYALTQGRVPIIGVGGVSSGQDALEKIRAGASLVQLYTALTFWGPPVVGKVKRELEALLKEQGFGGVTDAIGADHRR
Description: Inhibition of DHODH (unknown origin) expressed in Escherichia coli Rosetta2(DE3) assessed as reduction of DCIP using dihydroorotate as substrate preincubated for 30 mins followed by substrate addition in presence of CoQ10 measured after 1 hr

[3] = AUC (0 to last) in human at 16 mg/m2 administered as 10 mins iv infusion; format: ADME, organism-based; parameters: route intravenous, time 0 - last; settings: in vivo
[4] = AUC (0 to last) in human at 36 mg/m2, iv; format: ADME, organism-based; parameters: route intravenous, time 0 - last; settings: in vivo
[5] = Elimination half life in human at 16 mg/m2 administered as 10 mins iv infusion; format: ADME, organism-based; settings: in vivo, read-out: beta t1/2 (converted)
Homo sapiens [6] = assay: Volume of distribution at steady state in human at 36 mg/m2, iv; format: ADME, organism-based; settings: in vivo
[7] = Cmax in human at 8 mg/m2 administered as 10 mins iv infusion; format: ADME, organism-based; parameters: route intravenous; settings: in vivo
Homo sapiens [8] = assay: Volume of distribution at steady state in human at 16 mg/m2 administered as 10 mins iv infusion; format: ADME, organism-based; settings: in vivo
[9] = Thermodynamic aqueous solubility of the compound in pH 7.4 phosphate buffer at 6.2 mg/ml after overnight incubation by CLND method; format: physicochemical
[10] = Elimination half life in human at 8 mg/m2 administered as 10 mins iv infusion; format: ADME, organism-based; settings: in vivo, read-out: beta t1/2 (converted)
Homo sapiens [11] = assay: Clearance in human at 8 mg/m2 administered as 10 mins iv infusion; format: ADME, organism-based; settings: in vivo
[12] = AUC (0 to last) in human at 8 mg/m2 administered as 10 mins iv infusion; format: ADME, organism-based; parameters: time 0 - last, route intravenous; settings: in vivo
[13] = Thermodynamic aqueous solubility of the compound in pH 7.4 phosphate buffer at 6.4 mg/ml after overnight incubation by CLND method; format: physicochemical
[14] = Elimination half life in human at 36 mg/m2, iv; format: ADME, organism-based; settings: in vivo, read-out: beta t1/2 (converted)
Homo sapiens [15] = assay: Clearance in human at 16 mg/m2 administered as 10 mins iv infusion; format: ADME, organism-based; settings: in vivo
[16] = Cmax in human at 16 mg/m2 administered as 10 mins iv infusion; format: ADME, organism-based; parameters: route intravenous; settings: in vivo
Homo sapiens [17] = assay: Volume of distribution at steady state in human at 8 mg/m2 administered as 10 mins iv infusion; format: ADME, organism-based; settings: in vivo
[18] = Solubility of the compound in water at pH 7.4; format: physicochemical
HCT-116 [19] = assay: Growth inhibition of human HCT116 cells over-expressing DHODH at 2 times antiproliferative IC50 after 72 hrs in presence of 5 uM uridine by MTT assay; format: functional
[20] = Tmax in CD-1 mouse at 20 mg/kg, po; format: ADME, organism-based; settings: in vivo
[21] = Volume of distribution at steady state in CD-1 mouse at 10 mg/kg, iv; format: ADME, organism-based; settings: in vivo, read-out: Vdss
[22] = Elimination half life in CD-1 mouse at 20 mg/kg, po; format: ADME, organism-based; settings: in vivo, read-out: beta t1/2 (converted)
Mus musculus = assay: Oral bioavailability in CD-1 mouse at 20 mg/kg; format: ADME, organism-based; settings: in vivo
[23] = Apparent clearance in CD-1 mouse at 20 mg/kg, po; format: ADME, organism-based; settings: in vivo
[24] = Cmax in CD-1 mouse at 20 mg/kg, po; format: ADME, organism-based; parameters: dose 20 mg/kg, route oral; settings: in vivo
[25] = Thermodynamic aqueous solubility of the compound in pH 7.4 phosphate buffer at 4.9 mg/ml after overnight incubation by CLND method; format: physicochemical
[26] = Elimination half life in CD-1 mouse at 10 mg/kg, iv; format: ADME, organism-based; settings: in vivo, read-out: beta t1/2 (converted)
[27] = Initial plasma concentration in CD-1 mouse at 10 mg/kg, iv; format: ADME, organism-based
[28] = Clearance in CD-1 mouse at 10 mg/kg, iv; format: ADME, organism-based; settings: in vivo
[29] = AUC (0 to infinity) in CD-1 mouse at 20 mg/kg, po; format: ADME, organism-based; parameters: dose 20 mg/kg, time infinity, route oral; settings: in vivo
[30] = AUC (0 to last) in CD-1 mouse at 10 mg/kg, iv; format: ADME, organism-based; parameters: dose 10 mg/kg, time 0 - last, route intravenous; settings: in vivo
[31] = Thermodynamic aqueous solubility of the compound in pH 7.4 phosphate buffer at 5.8 mg/ml after overnight incubation by CLND method; format: physicochemical
[32] = Apparent volume of distribution during terminal phase in CD-1 mouse at 20 mg/kg, po; format: ADME, organism-based; settings: in vivo, read-out: Vz/F
[33] = AUC (0 to last) in CD-1 mouse at 20 mg/kg, po; format: ADME, organism-based; parameters: dose 20 mg/kg, route oral, time 0 - last; settings: in vivo
[34] = AUC (0 to infinity) in CD-1 mouse at 10 mg/kg, iv; format: ADME, organism-based; parameters: dose 10 mg/kg, time infinity, route intravenous; settings: in vivo

| SMILES | IC50 (MIA PaCa-2) [µM] | IC50 (HCT-116 [1]) [µM] | IC50 (HL-60) [µM] | IC50 [2] [µM] | other results |
| --- | --- | --- | --- | --- | --- |
| CC(C)Cc1ccc(-c2cc(C(=O)O)c3ccccc3n2)cc1 | 14.5 | – | – | – | – |
| O=C(O)c1cc(-c2ccc(-c3cccnc3C(F)(F)F)cc2)nc2ccccc12 | 8.84 | 4.63 | – | – | – |
| O=C(O)c1cc(-c2ccc(-c3ccccc3)cc2)nc2ccccc12 | 2.16 | 0.344 | 3.51 | – | – |
| COc1ccccc1-c1ccc(-c2cc(C(=O)O)c3ccccc3n2)cc1 | 7.45 | 2.85 | – | – | – |
| O=C(O)c1cc(-c2ccc(-c3cncnc3)cc2)nc2ccccc12 | > 50 | > 50 | – | > 200 | – |
| Cc1ccc(-c2ccc(-c3cc(C(=O)O)c4ccccc4n3)cc2)c(Cl)n1 | 14.2 | 5.13 | – | – | – |
| O=C(O)c1cc(-c2ccc(N3CCCCC3)cc2)nc2ccccc12 | 16.7 | 7.23 | – | – | – |
| Cc1ncccc1-c1ccc(-c2cc(C(=O)O)c3ccccc3n2)cc1 | 18.2 | – | 11.6 | – | – |
| Cc1c(-c2ccc(-c3cccnc3Cl)cc2)nc2cnc(C(F)(F)F)cc2c1C(=O)O | 21.5 | 25.7 | – | 0.201 | – |
| Cc1c(-c2ccc(-c3ccccc3)cc2)nc2cnc(C(F)(F)F)cc2c1C(=O)O | 2.18 | 0.88 | 2.67 | 0.0212 | – |
| Cc1c(-c2ccc(-c3cccnc3Cl)cc2)nc2cnccc2c1C(=O)O | > 100 | > 100 | – | 0.259 | – |
| Cc1c(-c2ccc(-c3ccccc3F)cc2)nc2ccc(F)cc2c1C(=O)O [BREQUINAR] | 1.69 | 0.679 | 0.544 | – | AUC(0-t) at 10 min [3]: 3800 ng·h/mL; AUC(0-t) [4]: 20700 ng·h/mL; half-life [5]: 3.1 h; Vdss (Homo sapiens [6]): 7.48 L/m2; Cmax [7]: 1800 ng/mL; Vdss (Homo sapiens [8]): 11.6 L/m2; Therm_solubility [9]: 1085.2 µM; half-life [10]: 2.9 h; CL (Homo sapiens [11]): 3.2 L/hr/m2; AUC(0-t) at 10 min [12]: 3200 ng·h/mL; Therm_solubility [13]: 1048.6 µM; half-life [14]: 4.3 h; CL (Homo sapiens [15]): 4.9 L/hr/m2; Cmax [16]: 2700 ng/mL; Vdss (Homo sapiens [17]): 8.2 L/m2; solubility [18]: < 100 µg/mL; growth inhibition (GI) (HCT-116 [19]): <50% |
| COC(=O)c1cc(-c2ccc(-c3cnccc3C(F)(F)F)cc2)nc2ccccc12 | – | – | – | > 50 | – |
| Cc1c(-c2ccc(-c3cccnc3F)cc2)nc2ccccc2c1C(=O)O | 13.4 | 21.3 | – | – | – |
| O=C(O)c1cc(-c2ccc(-c3cccnc3)cc2)nc2ccccc12 | 32.8 | 20.9 | – | – | – |
| Cc1c(-c2ccc(-c3cccnc3Cl)cc2)nc2ccccc2c1C(=O)O | 8.64 | 6.44 | 15.3 | – | – |
| Cc1ccc(-c2ccc(-c3nc4ccc(F)cc4c(C(=O)O)c3C)cc2)c(Cl)n1 | 6.57 | 1.98 | 4.81 | – | – |
| Cc1c(-c2ccc(-c3ccccc3)cc2)nc2ccncc2c1C(=O)O | 28.1 | 26.7 | – | 2.79 | – |
| O=C(O)c1cc(-c2ccc(-c3ccncc3)cc2)nc2ccccc12 | 68.1 | 33.6 | – | – | – |
| COC(=O)c1cc(-c2ccc(N3CCCCC3)cc2)nc2ccccc12 | 31.8 | 38.2 | – | > 200 | – |
| CC(C)c1ccc(-c2cc(C(=O)O)c3ccccc3n2)cc1 | 24.2 | 19.1 | – | – | – |
| Cc1c(-c2ccc(-c3cccnc3Cl)cc2)nc2ccc(F)cc2c1C(=O)O | 7.18 | 3.02 | 9.28 | – | Tmax [20]: 0.25 h; Vd [21]: 0.496 L/kg; half-life [22]: 2.78 h; F (Mus musculus): 56%; CL/F [23]: 9.25 mL/min/kg; Cmax [24]: 5310 ng/mL; Therm_solubility [25]: 982.1 µM; half-life [26]: 2.73 h; C0 [27]: 45400 ng/mL; clearance [28]: 5.15 mL/min/kg; AUC(0-inf) [29]: 36000 ng·h/mL; AUC(0-t) [30]: 32300 ng·h/mL; Therm_solubility [31]: 1000.1 µM; Vd/F [32]: 2.23 L/kg; AUC(0-t) [33]: 35900 ng·h/mL; AUC(0-inf) [34]: 32300 ng·h/mL |
| Cc1c(-c2ccc(-c3cccnc3F)cc2)nc2ccc(F)cc2c1C(=O)O | 23.6 | 5.71 | – | – | – |
| Cc1c(-c2ccc(-c3ccccc3F)cc2)nc2cnc(C(F)(F)F)cc2c1C(=O)O | 0.454 | 0.333 | 0.401 | 0.0118 | – |
